Test results published in PMC6719172, “Inhibition of CpLIP2 Lipase Hydrolytic Activity by Four Flavonols (Galangin, Kaempferol, Quercetin, Myricetin) Compared to Orlistat and Their Binding Mechanisms Studied by Quenching of Fluorescence” (Molecules, 2019).

Assays:
[1] = cited from earlier work
CpLIP2 lipase [2] = target: T1, CpLIP2 lipase (Candida parapsilosis, UniProt Q8NIN8); assay: Quenching of CpLIP2 intrinsic tryptophan fluorescence by flavonols (Stern–Volmer, Lehrer, van't Hoff analysis); type: binding; settings: for KSV (Stern–Volmer quenching constant): CpLIP2 2.5 µM, pH 7.0, flavonol 2.5–25 µM (GAL 2.5–17.5 µM); for Kq (bimolecular quenching constant): Kq = KSV/τ0, τ0 1.59 ns; for KSV (accessible), Stern–Volmer quenching constant of the exposed W residues / fa (fraction of accessible W residues to the quencher): Lehrer equation; for ΔG (free energy change): ΔG = ΔH − TΔS; for Kd: Kd (dissociation constant)
T1 sequence (Q8NIN8 entry or part of it): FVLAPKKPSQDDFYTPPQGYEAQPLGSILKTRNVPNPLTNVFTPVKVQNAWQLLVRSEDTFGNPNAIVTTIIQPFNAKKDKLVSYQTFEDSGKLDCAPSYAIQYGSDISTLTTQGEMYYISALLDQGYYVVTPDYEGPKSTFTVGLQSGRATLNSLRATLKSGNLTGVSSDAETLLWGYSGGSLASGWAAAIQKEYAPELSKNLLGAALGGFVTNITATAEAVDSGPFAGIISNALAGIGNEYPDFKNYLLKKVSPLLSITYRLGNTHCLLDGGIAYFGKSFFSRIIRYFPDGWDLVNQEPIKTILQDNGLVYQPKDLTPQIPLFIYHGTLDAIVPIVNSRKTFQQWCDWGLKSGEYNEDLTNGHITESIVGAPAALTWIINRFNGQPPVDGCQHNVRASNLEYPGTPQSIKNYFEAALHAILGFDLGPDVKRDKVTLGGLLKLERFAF
Description: The fluorescence quenching spectra of CpLIP2 lipase submitted to increasing concentrations of GAL, KAE, QUE and MYR are shown in Figure 3. A remarkable quenching of the CpLIP2 fluorescence emission was observed. […] The fluorescence quenching is usually described by the linear Stern–Volmer Equations (2) and (3):(2) F0/F = 1 + Ksv [Q] = 1 + Kqτ0 [Q] (3) Kq=Ksv/τ0 where F0 and F are the intrinsic fluorescence intensities of CpLIP2 lipase (fluorophore) in absence or presence of quencher (flavonol), respectively. Kq is the bimolecular quenching constant, τ0 is the lifetime of the fluorophore in the absence of the quencher, [Q] is the concentration of the quencher, and KSV is the Stern–Volmer quenching constant.
The mechanism of quenching, occurring between CpLIP2 lipase and flavonols, was characterized by determining the values of Kq and the thermodynamic parameters by varying the temperature. […] In both cases, the bimolecular quenching constant Kq can be calculated by the ratio between KSV and τ0, itself determined at 1.59 ns for Human Pancreatic Lipase.
The inaccessible or buried residues are responsible for the remaining fluorescence, which is probably independent of the quencher concentration. […] An up-down curvature towards the x-axis has been shown for the four flavonols (Figure 4), indicating the presence of two populations of fluorophores, part of which would not be accessible. That means that some W residues are buried inside the lipase structure and that other residues are exposed to the solvent. Therefore, data were analyzed through the Lehrer equation, also known as the modified (or non-linear) Stern–Volmer Equation (4):(4) F0/ F0−F = 1/ fa Ksv 1/ [Q] +1/ fa
For static quenching, the equilibrium between free and bound CpLIP2 lipase, when the ligand molecules bind independently to equivalent sites of macromolecules, can be described by the following Equation (5):(5) log10F0−F/F=nlog10[Q]+log10Ka where Ka is the binding constant and n the number of binding sites per CpLIP2 molecule.
The results were determined for all flavonols tested at different temperatures from the plots of log10 F0 − F/F versus log10 [Q] and listed in Table 2. The plots show a linear relationship from which the slope equal to n and intercept on y-axis equal to log10 Ka. For the four flavonols, the Ka values increased when the temperatures increased. In addition, the n values were less than 1.0 in all cases and increased according to the temperature. […] Values of the dissociation constant of complexes were deduced from the Stern–Volmer Equation (6) and (7), for which Kd is expressed as the inverse of fa Ksv product. (6) F0/ F0−F= Kd 1/ [Q] +1 (7) Kd= 1/fa Ksv
Thermodynamic parameters were calculated to determine the type of binding forces that contribute in the CpLIP2 lipase–flavonol interactions. […] Both the enthalpy (ΔH) and entropy changes (ΔS) can be estimated from the following van′t Hoff Equation (8):(8) Ln Ka = − ΔH /RT + ΔS /R
The values of Gibbs binding free energy change (ΔG) are calculated from the following Equation (9):(9) ΔG= ΔH − TΔS
To fill up the volume of 300 µL by well, 190 µL of sodium phosphate buffer solution (75 mM, pH 7.0) was added to each well to obtain final concentration at 50 mM. Then, 100 µL of ethanol absolute–water ultrapure (2:8, v/v) solution was added to obtain a final amount of ethanol […] in the well of 300 µL. […] The final concentration of ethanol during the experiments never exceeded 0.07% (v/v). The last step was to add 10 µL of lipase after to have optimized the final concentration of CpLIP2 equal to 2.5 µM for all our assays, giving the optimal fluorescence intensity for all measurements. The measurement of intrinsic fluorescence started after mechanical shaking for 30 s inside the multi-plate reader. […]

CpLIP2 lipase [3] = target: T1, CpLIP2 lipase; assay: Fluorescence resonance energy transfer between CpLIP2 and flavonols (Förster theory); type: binding; as to R0 (Förster distance): values in Å; as to r (distance between acceptor and donor): values in Å
Description: Fluorescence emission spectra of CpLIP2 lipase overlap the UV absorption spectrum of each flavonol studied, that may induce fluorescence resonance energy transfer (FRET) governed by the binding distance r between the protein behaving as energy donor and the flavonol energy acceptor. The binding distance r can be calculated via Förster theory with the following Equations (10) and (11):(10) E=1−F/ F0=R06/ R06+r^6 where E is the energy transfer efficiency, which is the photons fraction absorbed and transferred by the donor to the acceptor, F and F0 are the fluorescence intensities of donor (CpLIP2) in the presence or absence of acceptor (flavonol) at the same concentrations. The parameter r is the distance between acceptor and donor, and R0 is the Förster distance, which is the critical energy transfer distance when 50% of the excitation energy is transferred from the donor to the acceptor. […] The value of R0 ranges from 20–90 Å for biological macromolecules.

SMILES: O=c1c(O)c(-c2cc(O)c(O)c(O)c2)oc2cc(O)cc(O)c12 [MYR, myricetin]
- log10 P of partition between octanol and water phases [1]: 2.1
- Ka (association constant) (CpLIP2 lipase [2]; 298 K): 45.21 ± 1 L/mol
- n (number of binding sites) (CpLIP2 lipase [2]; 298 K): 0.43 ± 0.02
- KSV (Stern–Volmer quenching constant) (CpLIP2 lipase [2]; 298 K): 1.6 ± 0.1 × 10^4 L·mol^−1
- Kq (bimolecular quenching constant) (CpLIP2 lipase [2]; 298 K): 1e+13 M⁻¹ s⁻¹
- KSV (accessible), Stern–Volmer quenching constant of the exposed W residues (CpLIP2 lipase [2]; 298 K): 290000 L/mol
- fa (fraction of accessible W residues to the quencher) (CpLIP2 lipase [2]; 298 K): 0.34
- ΔG (free energy change) (CpLIP2 lipase [2]; 298 K): -6.26 kcal/mol
- Ka (association constant) (CpLIP2 lipase [2]; 308 K): 53.09 ± 2 L/mol
- n (number of binding sites) (CpLIP2 lipase [2]; 308 K): 0.46 ± 0.03
- KSV (Stern–Volmer quenching constant) (CpLIP2 lipase [2]; 308 K): 1.3 ± 0.5 × 10^4 L·mol^−1
- Kq (bimolecular quenching constant) (CpLIP2 lipase [2]; 308 K): 8.2e+12 M⁻¹ s⁻¹
- KSV (accessible), Stern–Volmer quenching constant of the exposed W residues (CpLIP2 lipase [2]; 308 K): 280000 L/mol
- fa (fraction of accessible W residues to the quencher) (CpLIP2 lipase [2]; 308 K): 0.32
- ΔG (free energy change) (CpLIP2 lipase [2]; 308 K): -6.45 kcal/mol
- Ka (association constant) (CpLIP2 lipase [2]; 318 K): 44.79 ± 1 L/mol
- n (number of binding sites) (CpLIP2 lipase [2]; 318 K): 0.44 ± 0.02
- KSV (Stern–Volmer quenching constant) (CpLIP2 lipase [2]; 318 K): 1.2 ± 0.4 × 10^4 L·mol^−1
- Kq (bimolecular quenching constant) (CpLIP2 lipase [2]; 318 K): 7.7e+12 M⁻¹ s⁻¹
- KSV (accessible), Stern–Volmer quenching constant of the exposed W residues (CpLIP2 lipase [2]; 318 K): 320000 L/mol
- fa (fraction of accessible W residues to the quencher) (CpLIP2 lipase [2]; 318 K): 0.30
- ΔG (free energy change) (CpLIP2 lipase [2]; 318 K): -6.67 kcal/mol
- Ka (association constant) (CpLIP2 lipase [2]; 328 K): 97.14 ± 2 L/mol
- n (number of binding sites) (CpLIP2 lipase [2]; 328 K): 0.51 ± 0.09
- KSV (Stern–Volmer quenching constant) (CpLIP2 lipase [2]; 328 K): 1.4 ± 0.5 × 10^4 L·mol^−1
- Kq (bimolecular quenching constant) (CpLIP2 lipase [2]; 328 K): 9e+12 M⁻¹ s⁻¹
- KSV (accessible), Stern–Volmer quenching constant of the exposed W residues (CpLIP2 lipase [2]; 328 K): 250000 L/mol
- fa (fraction of accessible W residues to the quencher) (CpLIP2 lipase [2]; 328 K): 0.33
- ΔG (free energy change) (CpLIP2 lipase [2]; 328 K): -6.88 kcal/mol
- Kd (CpLIP2 lipase [2]; 298 K): 10 ± 1 µM
- Kd (CpLIP2 lipase [2]; 308 K): 11 ± 4 µM
- Kd (CpLIP2 lipase [2]; 318 K): 10 ± 4 µM
- Kd (CpLIP2 lipase [2]; 328 K): 12 ± 7 µM
- fa (fraction of accessible W residues) (CpLIP2 lipase [2]; across temperatures): 0.33
- n (number of binding sites) (CpLIP2 lipase [2]; across temperatures): 0.43
- order of magnitude of Kq (CpLIP2 lipase [2]; all temperatures of Table 1): ~10^13 L mol^−1 s^−1
- ΔS (entropy changes) (CpLIP2 lipase [2]; van't Hoff plot, 298–328 K): 0.10 kJ·mol^−1·K^−1
- percentage of transfer efficiency (CpLIP2 lipase [3]): 23%
- E (energy transfer efficiency) (CpLIP2 lipase [3]; 2.5 µM, 308 K, pH 7.0): 0.23
- J (overlap integral) (CpLIP2 lipase [3]; 2.5 µM, 308 K, pH 7.0): 15 × 10^14 nm^4·cm^−1·M^−1
- R0 (Förster distance) (CpLIP2 lipase [3]; 2.5 µM, 308 K, pH 7.0): 38.4 Å
- r (distance between acceptor and donor) (CpLIP2 lipase [3]; 2.5 µM, 308 K, pH 7.0): 46.7 Å
- r/R0 (CpLIP2 lipase [3]; 2.5 µM, 308 K, pH 7.0): 1.2
